Reference: patent publication US8293211B2, “CB1 receptor antagonists and uses thereof” (MAKScientific, LLC, priority 2007, dated 2012)
Like-named read-outs stand apart in the source and are kept apart here.

Experiments:
[1] = tested on: Male Sprague-Dawley (SD) rats; test: Food intake studies (experiments A, B, C), food intake and body weight; assay type: in vivo, rat; settings: for food intake, difference to rats treated with Compound 3: 5 mg kg-1 each
Procedure: All experimental protocols were approved by internal guidelines. Different concentrations of drugs were administered I.P. in a 1 ml kg-1 (milliliters per kilogram) volume, except M6G, which was given s.c. (subcutaneously) in a 0.1 ml kg-1 volume.
Food and water were presented in inverted glass bottles that attached to the outside of the cage. Food was available for 18 h each day starting at 16:00 h (12 h light-dark cycle; lights off 16:00 h).
Intake measurements were taken at 1.5 h, 3 h, 5 h, and 18 h after food became available.
Rats were habituated to testing and handling procedures as before. […] Food intake and body weight were monitored daily.
On the day of the experiment each rat received only a single injection, 30 min later food was made available as described in experiment 1. Food intake was measured 0.5, 1.5, 3, 5, and 18 h after administration. Food intake and body weight were monitored daily for five days after the experiment to assess the sustained effect of a single administration of each compound.

CB1 receptor = CB1 receptor (Rattus norvegicus, UniProt P20272); test: Thermoregulation assay: hypothermia induced by the CB1 agonist CP55,940; assay type: in vivo; design: antagonized CB1 receptors in vivo; from tissue; host or cells: whole animal, male SD rats; settings: 5 mg kg-1 pre-treatment 45 min before CP55,940 0.3 mg kg-1; compared with vehicle
CB1 receptor, sequence (P20272 whole entry): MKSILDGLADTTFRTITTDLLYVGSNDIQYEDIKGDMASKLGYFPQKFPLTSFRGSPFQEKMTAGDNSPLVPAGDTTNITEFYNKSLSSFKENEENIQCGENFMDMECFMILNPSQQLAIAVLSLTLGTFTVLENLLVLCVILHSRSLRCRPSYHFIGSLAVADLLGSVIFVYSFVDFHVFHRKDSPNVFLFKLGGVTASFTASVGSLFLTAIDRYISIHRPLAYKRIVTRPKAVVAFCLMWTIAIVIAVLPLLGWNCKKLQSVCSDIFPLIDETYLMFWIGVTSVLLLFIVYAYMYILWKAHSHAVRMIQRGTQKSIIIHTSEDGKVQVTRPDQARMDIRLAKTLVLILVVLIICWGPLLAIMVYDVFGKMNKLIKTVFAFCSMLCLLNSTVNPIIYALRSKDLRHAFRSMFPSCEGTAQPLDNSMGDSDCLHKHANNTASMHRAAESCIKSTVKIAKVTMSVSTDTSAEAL
Procedure: Briefly, silicone coated temperature data loggers (SubCue Inc, Calgary, Canada) were surgically implanted into the abdominal cavity of male SD (450-500 g) rats under isoflurane anesthesia (4% induction; 2-2.5% maintenance). Rats were allowed to recover for 3 days before being acclimatized to testing and handling procedures for an additional seven days. Core body temperature readings were sampled every 5 min for 300 min during the course of each experiment.

hCB1 = target: T1, hCB1 (Homo sapiens, UniProt P21554); test: Forskolin-stimulated cAMP assay; assay type: cell-based; settings: HEK293 cells transfected with human CB1 receptors
T1 construct: expressed in transfected cells; host or cells: HEK293
T1 sequence (P21554 whole entry): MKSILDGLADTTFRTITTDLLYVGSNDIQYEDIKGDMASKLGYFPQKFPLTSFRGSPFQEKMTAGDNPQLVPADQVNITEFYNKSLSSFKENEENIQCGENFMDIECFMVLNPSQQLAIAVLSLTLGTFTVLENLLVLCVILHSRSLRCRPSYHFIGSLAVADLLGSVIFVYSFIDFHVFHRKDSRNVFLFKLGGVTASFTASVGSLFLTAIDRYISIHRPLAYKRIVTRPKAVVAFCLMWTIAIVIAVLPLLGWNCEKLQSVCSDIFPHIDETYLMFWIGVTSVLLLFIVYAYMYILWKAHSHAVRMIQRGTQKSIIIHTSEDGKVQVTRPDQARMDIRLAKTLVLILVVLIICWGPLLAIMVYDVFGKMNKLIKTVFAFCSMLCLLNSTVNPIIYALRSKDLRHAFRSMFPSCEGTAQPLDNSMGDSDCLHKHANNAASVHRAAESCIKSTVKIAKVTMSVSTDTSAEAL
Procedure: Intracellular cAMP levels were measured with a competitive protein-binding assay using intact HEK293 cells expressing hCB1 or hCB2 and a cAMP immunoassay kit from Sigma (St. Louis, Mo.). In short, forskolin stimulated cells were incubated with various concentrations of compound, cAMP anti-body and cAMP conjugate for 2 hours at ambient temperature. The reaction was stopped by emptying the wells followed by the addition of p-NPP substrate and incubation for 1 hour. […] The results were expressed as percent inhibition of forskolin-stimulated cAMP accumulation and EC50 curves were generated with the use of GraphPad Prism software.

Rats = test: Operant lever pressing on FR5 schedules; assay type: in vivo, rat; settings: for ED50: Rattus norvegicus
Procedure: Following the initial training period, rats (n=8 each group) were injected with drug and then tested once a week on Thursdays. For experiments 1 and 2, Compound 3 or Compound 2, respectively were injected IP at doses of 1.0, 2.0, 4.0, or 8.0 mg/kg or vehicle. Pretreatment time for these two experiments was 30 min. For experiments 3 and 4, rats were given drug or vehicle orally 1 hour before testing. In experiment 3, rats were given vehicle or 8.0, 16.0, or 32.0 mg/kg Compound 3. In experiment 4, rats received vehicle or Compound 2 at doses of 4.0, 8.0, or 16.0 mg/kg. All doses were given in a randomized order using a repeated measures design.

| effect on forskolin stimulated cAMP production (hCB1) | Compound | acute effect on food intake compared with vehicle ([1]; experiment A, 5 mg kg-1 I.P. single dose) | food intake, difference to rats treated with Compound 3 ([1]; experiment A, 5 h) [g] | food intake, difference to rats treated with Compound 3 ([1]; experiment A, 18 h) [g] | early effect on food intake at each time point ([1]; experiment C, 5 mg kg-1 single dose) | weight gain for several days after the experiment ([1]; experiment C, single administration (Compound 1 5 mg kg-1; Compound 3 10, 20 mg kg-1)) | hypothermic effect of CP55,940 (CB1 receptor) | suppression of FR5 responding compared to vehicle (Rats; IP 1.0, 2.0, 4.0, 8.0 mg/kg) | ED50 (Rats; IP, pretreatment 30 min, read-out: ED50 for the effect on FR5 responding) [mg/kg] | ED50 (Rats; oral, 1 hour before testing, read-out: ED50 for suppression of lever pressing on FR5) [mg/kg] | change in lever pressing on FR5 compared to vehicle (Rats; oral, 1 hour before testing (Compound 3 8.0-32.0 mg/kg; Compound 2 4.0-16.0 mg/kg)) |
| --- | --- | --- | --- | --- | --- | --- | --- | --- | --- | --- | --- |
| – | Cc1c(C(=O)NN2CCCCC2)nn(-c2ccc(Cl)cc2Cl)c1-c1ccc(I)cc1 [Compound 1, N-(Piperidin-1-yl)-5-(4-iodophenyl)-1-(2,4-dichlorophenyl)-4-methyl-1H-pyrazole-3-carboxamide, reference compound] | significantly reduced food intake | -15.5 | -26.1 | significantly reduced food intake | significantly reduced | significantly attenuated | – | – | – | – |
| no effect | Cc1c(C(=O)NN2CCOCC2)nn(-c2ccc(Cl)cc2Cl)c1-c1ccc(C#CCCC#N)cc1 [Compound 2] | – | – | – | – | – | – | significantly suppressed | 0.576 | 1.49 | dose-dependent decrease |
